# Experiment: Ability to inhibit Human cytomegalovirus (HCMV) protease activity
row,IC50,Compound
1,500 µM,"C[C@@H]1C(=O)N(c2ccc([N+](=O)[O-])cc2[N+](=O)[O-])[C@H]2CCN(C(=O)OCc3ccccc3)C12 (stereo partly drawn) [4-(2,4-Dinitro-phenyl)-6-methyl-5-oxo-hexahydro-pyrrolo[3,2-b]pyrrole-1-carboxylic acid benzyl ester]"
2,> 500 µM,"CC(=O)C=CN1C(=O)[C@@H](C)C2[C@@H]1CCN2C(=O)OCc1ccccc1 (stereo partly drawn) [6-Methyl-5-oxo-4-(3-oxo-but-1-enyl)-hexahydro-pyrrolo[3,2-b]pyrrole-1-carboxylic acid benzyl ester]"
3,250 µM,"C[C@@H]1C(=O)N(C(=O)n2cccc2)[C@H]2CCN(C(=O)OCc3ccccc3)C12 (stereo partly drawn) [6-Methyl-5-oxo-4-(pyrrole-1-carbonyl)-hexahydro-pyrrolo[3,2-b]pyrrole-1-carboxylic acid benzyl ester]"
